{"source": "patent US20050124595A1", "about": "“Compositions and methods for treating glaucoma and ocular hypertension” (priority 2002, published 2005)", "key": {"Mice (CD-1)": {"tested_on": "Mice (CD-1)", "test": "Tremorgen assay, mouse model", "assay_type": "in vivo", "conditions": "CD-1 mice; for Tremors: intraperitoneal", "experimental": "Tremorgen Assay A mouse model was developed to evaluate the tremorgen potential of the instance compounds. Mice (CD-1) were injected intraperitoneally at 5 mg/Kg with each compound and observed by investigators for 1 hour for any signs of tremors as well as other behaviors not seen in control mice.\nA known tremorgen, Aflatrem, consistently produces tremors in injected mice within 15 minutes at 1 and 5 mg/Kg."}, "[1]": {"target": "T1, high-conductance calcium-activated potassium (maxi-K) channels (Homo sapiens, UniProt Q12791)", "T1 construct": "expressed in transfected cells; host or cells: CHO cells (α-subunit alone) and HEK293 cells (α- and β-subunits)", "T1 sequence (Q12791 whole entry)": "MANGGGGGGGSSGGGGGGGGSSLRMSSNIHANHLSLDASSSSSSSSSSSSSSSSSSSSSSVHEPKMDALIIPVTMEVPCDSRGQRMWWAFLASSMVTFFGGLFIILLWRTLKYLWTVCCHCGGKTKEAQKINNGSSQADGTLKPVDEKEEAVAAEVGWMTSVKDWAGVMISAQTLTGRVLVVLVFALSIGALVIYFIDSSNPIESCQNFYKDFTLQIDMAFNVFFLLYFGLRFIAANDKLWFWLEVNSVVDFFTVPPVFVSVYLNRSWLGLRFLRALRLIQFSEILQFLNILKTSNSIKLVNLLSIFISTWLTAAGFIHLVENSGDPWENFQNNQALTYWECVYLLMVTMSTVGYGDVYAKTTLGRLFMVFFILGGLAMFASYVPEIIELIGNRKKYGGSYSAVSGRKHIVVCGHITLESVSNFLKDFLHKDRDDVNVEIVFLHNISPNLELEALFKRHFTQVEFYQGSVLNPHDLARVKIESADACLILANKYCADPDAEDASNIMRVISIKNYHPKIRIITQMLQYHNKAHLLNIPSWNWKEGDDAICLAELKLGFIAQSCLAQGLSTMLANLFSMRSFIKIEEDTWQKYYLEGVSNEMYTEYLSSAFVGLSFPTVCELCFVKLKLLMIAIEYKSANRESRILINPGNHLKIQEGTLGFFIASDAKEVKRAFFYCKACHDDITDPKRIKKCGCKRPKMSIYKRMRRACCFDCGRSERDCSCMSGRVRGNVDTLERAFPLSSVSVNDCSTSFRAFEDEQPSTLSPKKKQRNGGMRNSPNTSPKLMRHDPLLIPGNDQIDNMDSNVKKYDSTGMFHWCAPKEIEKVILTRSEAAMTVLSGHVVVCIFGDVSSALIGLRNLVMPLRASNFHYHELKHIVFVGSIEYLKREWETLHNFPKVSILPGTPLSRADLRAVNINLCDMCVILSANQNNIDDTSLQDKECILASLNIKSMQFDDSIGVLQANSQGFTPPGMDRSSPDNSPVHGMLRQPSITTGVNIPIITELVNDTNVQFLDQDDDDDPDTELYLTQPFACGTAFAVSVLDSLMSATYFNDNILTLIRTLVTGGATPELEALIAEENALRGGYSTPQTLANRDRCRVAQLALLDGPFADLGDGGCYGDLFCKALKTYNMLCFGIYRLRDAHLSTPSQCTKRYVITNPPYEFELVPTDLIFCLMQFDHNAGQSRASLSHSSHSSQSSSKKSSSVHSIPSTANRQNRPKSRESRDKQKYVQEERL", "test": "Patch clamp recordings of maxi-K channel currents in excised inside-out membrane patches", "assay_type": "biochemical", "conditions": "from reduction in peak current, 10 nM compound on internal side of membrane patch, held at -80 mV, steps typically to +50 mV", "text": "Patch clamp recordings of currents flowing through high-conductance calcium-activated potassium (maxi-K) channels were made from membrane patches excised from CHO cells constitutively expressing the α-subunit of the maxi-K channel and from HEK293 cells constitutively expressing both α- and β-subunits using conventional techniques (Hamill et al., 1981, Pflügers Archiv. 391, 85-100) at room temperature. Glass capillary tubing (Garner #7052) was pulled in two stages to yield micropipettes with tip diameters of approximately 1-2 microns. Pipettes were typically filled with solutions containing (mM): 150 KCl, 10 Hepes (4-(2-hydroxyethyl)-1-piperazine […]), 1 MgCl2, 0.01 CaCl2, and adjusted to pH 7.20 with 3.7 mM KOH. After forming a high resistance ([…]) seal between the plasma membrane and the pipette, the pipette was withdrawn from the cell, forming an excised inside-out membrane patch. The patch was excised into a bath solution containing (mM): 150 KCl, 10 Hepes, 5 EGTA (ethylene glycol bis(β-aminoethyl ether)-N,N,N′,N′-tetraacetic acid), sufficient Ca to yield a free Ca concentration of 1-5 μM, and the pH was adjusted to 7.2 with KOH. For example, 4.193 mM Ca was added to give a free concentration of 1 μM at 22° C. An EPC9 amplifier (HEKA Elektronic, Lambrect, Germany) was used to control the voltage and to measure the currents flowing across the membrane patch. The input to the headstage was connected to the pipette solution with a Ag/AgCl wire, and the amplifier ground was connected to the bath solution with a Ag/AgCl wire covered with a tube filled with agar dissolved in 0.2 M KCl. […]\nThe effects of the compounds of the present invention on maxi-K channels was examined in excised inside-out membrane patches. […] The fraction of channels blocked in each experiment was calculated from the reduction in peak current caused by application of 10 nM of specified compound to the internal side of the membrane patch. […]"}}, "data": [{"compound": "Aflatrem [reference compound]", "values": [{"measurement": "time to tremors after injection", "setting": "Mice (CD-1); 1 and 5 mg/Kg", "value": "≤ 15", "unit": "min"}, {"measurement": "Tremors", "setting": "Mice (CD-1); 1 and 5 mg/Kg", "value": "Tremors"}]}, {"compound": "CC(C)=CCc1cccc2[nH]c3c(c12)C[C@@H]1CC[C@@]2(O)C45OC4C4OC(C6OC6(C)C)OC(C)(C)C4OC5=CC[C@]2(C)[C@@]31C", "note": "(some centres unmarked) [Compound III]", "values": [{"measurement": "Tremors", "setting": "Mice (CD-1); 5 mg/Kg, observed for 1 hour", "value": "None"}, {"measurement": "FRACTION BLOCKED (10 nM)", "setting": "[1]", "value": "0.99-1"}]}, {"compound": "CC1(C)OC1Cc1cccc2[nH]c3c(c12)C[C@@H]1CC[C@@]2(O)C45OC4C4OC(C6OC6(C)C)OC(C)(C)C4OC5=CC[C@]2(C)[C@@]31C", "note": "(some centres unmarked) [Compound I]", "values": [{"measurement": "Tremors", "setting": "Mice (CD-1); 5 mg/Kg, observed for 1 hour", "value": "None"}, {"measurement": "FRACTION BLOCKED (10 nM)", "setting": "[1]", "value": 0.9}]}, {"compound": "CC(C)=CC1OC2C(OC3=CC[C@]4(C)[C@@]5(C)c6[nH]c7ccccc7c6C[C@@H]5CC[C@@]4(O)C34OC24)C(C)(C)O1", "note": "(some centres unmarked) [Compound II]", "values": [{"measurement": "Tremors", "setting": "Mice (CD-1); 5 mg/Kg, observed for 1 hour", "value": "None"}, {"measurement": "FRACTION BLOCKED (10 nM)", "setting": "[1]", "value": "0.99-1"}]}]}
